# Values quoted from earlier work, collected in US20230405112A1, “PHARMACEUTICAL COMPOSITION, PHARMACEUTICAL COMBINED FORMULATION, AND COMBINED FORMULATION KIT FOR PREVENTION OR TREATMENT OF CHRONIC HEPATITIS B, EACH COMPRISING, AS ACTIVE INGREDIENT, ORAL ANTIVIRAL AGENT AND THERAPEUTIC VACCINE INCLUDING LIPOPEPTIDE AND POLY(I:C) ADJUVANT” (CHA VACCINE RESEARCH INSTITUTE CO., LTD, priority 2020, published 2023).
# “And” between values parts separate entries of the source, which are not always exact repeats. Equal values may be shown once. Where a name gives a salt, the structure may show the parent alone. Read-outs that look alike come from different tables or passages of the source.
# How the values were obtained:
# hepatitis B virus [1] = conditions: after 1 year of treatment
# hepatitis B virus [2] = system: hepatitis B virus
# hepatitis B virus [3] = conditions: Chinese patients; 7 years
# hepatitis B virus [4] = system: hepatitis B virus; remark: listed apart in the source
# hepatitis B virus [5] = system: hepatitis B virus; remark: listed apart in the source
# [6] = system: virus-specific cytotoxic T lymphocytes (CTLs); conditions: combined with an influenza virus T cell epitope; administered to mice
# [7] = HBeAg(+), phase 3, 2 year results
# [8] = baseline HBeAg(+), 1 year (week 48)
# [9] = baseline HBeAg(+), 2 years (week 96)
# [10] = baseline HBeAg(−), 1 year (week 48)
# [11] = baseline HBeAg(−), 2 years (week 96)
# [12] = HBeAg(+), 3-year follow-up, (non-Asian)
# [13] = HBeAg(+), phase 3, 1 year, (non-Asian)
# [14] = all patients, 10-year follow-up
compound,measurement,setting,value
"CC(C)(C)C(=O)OCOP(=O)(COCCn1cnc2c(N)ncnc21)OCOC(=O)C(C)(C)C [ADV, Adefovirdipivoxil]",ALT nomalisatioin,hepatitis B virus [1]; HBeAg(+) patients,48~54%
same,Anti-Hbe-seroconversion,hepatitis B virus [1]; HBeAg(+) patients,12~18%
same,HBV DNA <60~80 IU/ml,hepatitis B virus [1]; HBeAg(+) patients,13~21%
same,HBs Ag loss,hepatitis B virus [1]; HBeAg(+) patients,0%
same,ALT nomalisatioin,hepatitis B virus [1]; HBeAg(−) patients,72~77%
same,HBV DNA <60~80 IU/ml,hepatitis B virus [1]; HBeAg(−) patients,51~63%
same,HBs Ag loss,hepatitis B virus [1]; HBeAg(−) patients,0%
C=C1[C@H](CO)[C@@H](O)C[C@@H]1n1cnc2c(=O)[nH]c(N)nc21 [Entecavir],ALT nomalisatioin,hepatitis B virus [1]; HBeAg(+) patients,68%
same,Anti-Hbe-seroconversion,hepatitis B virus [1]; HBeAg(+) patients,21%
same,HBV DNA <60~80 IU/ml,hepatitis B virus [1]; HBeAg(+) patients,67%
same,HBs Ag loss,hepatitis B virus [1]; HBeAg(+) patients,2%
same,ALT nomalisatioin,hepatitis B virus [1]; HBeAg(−) patients,78%
same,HBV DNA <60~80 IU/ml,hepatitis B virus [1]; HBeAg(−) patients,90%
same,HBs Ag loss,hepatitis B virus [1]; HBeAg(−) patients,0%
same,HBeAg seroconversion (%),hepatitis B virus [2]; 5 year results,23%
same,HBeAg seroconversion n/N,hepatitis B virus [2]; 5 year results,33/141
same,HBsAg loss (%),"hepatitis B virus [2]; HBeAg(+), 5 year results",1.4%
same,HBsAg loss n/N,"hepatitis B virus [2]; HBeAg(+), 5 year results",2/145
same,HBsAg loss (%),hepatitis B virus [2]; [7],5%
same,HBsAg loss n/N,hepatitis B virus [2]; [7],18/354
same,HBsAg seroconversion (%),hepatitis B virus [2]; [7],2%
same,HBsAg seroconversion n/N,hepatitis B virus [2]; [7],6/354
same,HBeAg seroconversion (%),"hepatitis B virus [2]; phase 3, 2 year results",31%
same,HBeAg seroconversion n/N,"hepatitis B virus [2]; phase 3, 2 year results",110/354
same,HBeAg seroconversion rate (Kaplan-meier analysis),hepatitis B virus [3],82.1%
same,HBsAg loss (%),hepatitis B virus [3],2.5%
same,"HBsAg loss, patients",hepatitis B virus [3],4 of 160
"Nc1ccn([C@@H]2CS[C@H](CO)O2)c(=O)n1 [LAM, Lamivudine]",ALT nomalisatioin,hepatitis B virus [1]; HBeAg(+) patients,41~72%
same,Anti-Hbe-seroconversion,hepatitis B virus [1]; HBeAg(+) patients,16~18%
same,HBV DNA <60~80 IU/ml,hepatitis B virus [1]; HBeAg(+) patients,36~44%
same,HBs Ag loss,hepatitis B virus [1]; HBeAg(+) patients,0~1%
same,ALT nomalisatioin,hepatitis B virus [1]; HBeAg(−) patients,71~79%
same,HBV DNA <60~80 IU/ml,hepatitis B virus [1]; HBeAg(−) patients,72~73%
same,HBs Ag loss,hepatitis B virus [1]; HBeAg(−) patients,0%
"CC(C)OC(=O)[C@H](C)N[P@](=O)(CO[C@H](C)Cn1cnc2c(N)ncnc21)Oc1ccccc1 [TAF, Tenofoviralafenamide fumarate]",ALT nomalisatioin,hepatitis B virus [1]; HBeAg(+) patients,72%
same,Anti-Hbe-seroconversion,hepatitis B virus [1]; HBeAg(+) patients,10%
same,HBV DNA <60~80 IU/ml,hepatitis B virus [1]; HBeAg(+) patients,64%
same,HBs Ag loss,hepatitis B virus [1]; HBeAg(+) patients,1%
same,ALT nomalisatioin,hepatitis B virus [1]; HBeAg(−) patients,83%
same,HBV DNA <60~80 IU/ml,hepatitis B virus [1]; HBeAg(−) patients,94%
same,HBs Ag loss,hepatitis B virus [1]; HBeAg(−) patients,0%
same,HBeAg loss (%),"hepatitis B virus [4]; Total, 1 year (week 48)",(14%)
same,HBeAg loss n/N,"hepatitis B virus [4]; Total, 1 year (week 48)",78/565
same,HBsAg loss n/N,"hepatitis B virus [4]; Total, 1 year (week 48)",4/861
same,HBeAg loss (%),"hepatitis B virus [4]; Total, 2 years (week 96)",(22%)
same,HBeAg loss n/N,"hepatitis B virus [4]; Total, 2 years (week 96)",123/565
same,HBsAg loss (%),"hepatitis B virus [4]; Total, 2 years (week 96)",(<1%)
same,HBsAg loss n/N,"hepatitis B virus [4]; Total, 2 years (week 96)",8/861
same,HBeAg seroconversion (%),"hepatitis B virus [4]; baseline HBeAg(+), 1 year",(10%)
same,HBeAg seroconversion n/N,"hepatitis B virus [4]; baseline HBeAg(+), 1 year",58/565
same,HBsAg seroconversion (%),"hepatitis B virus [4]; baseline HBeAg(+), 1 year",(1%)
same,HBsAg seroconversion n/N,"hepatitis B virus [4]; baseline HBeAg(+), 1 year",3/576
same,HBeAg loss n/N,hepatitis B virus [4]; [8],78/565
same,HBsAg loss n/N,hepatitis B virus [4]; [8],4/576
same,HBeAg seroconversion (%),"hepatitis B virus [4]; baseline HBeAg(+), 2 years",(18%)
same,HBeAg seroconversion n/N,"hepatitis B virus [4]; baseline HBeAg(+), 2 years",99/565
same,HBsAg seroconversion (%),"hepatitis B virus [4]; baseline HBeAg(+), 2 years",(1%)
same,HBsAg seroconversion n/N,"hepatitis B virus [4]; baseline HBeAg(+), 2 years",6/576
same,Average reduction of HBsAg,hepatitis B virus [4]; [9],−0.51 log10IU/ml
same,HBeAg loss n/N,hepatitis B virus [4]; [9],123/565
same,HBsAg loss n/N,hepatitis B virus [4]; [9],7/576
same,HBsAg seroconversion n/N,"hepatitis B virus [4]; baseline HBeAg(−), 1 year",0
same,HBsAg loss n/N,hepatitis B virus [4]; [10],0
same,HBsAg seroconversion (%),"hepatitis B virus [4]; baseline HBeAg(−), 2 years",(<1%)
same,HBsAg seroconversion n/N,"hepatitis B virus [4]; baseline HBeAg(−), 2 years",1/281
same,Average reduction of HBsAg,hepatitis B virus [4]; [11],−0.14 log10IU/ml
same,HBsAg loss (%),hepatitis B virus [4]; [11],(<1%)
same,HBsAg loss n/N,hepatitis B virus [4]; [11],1/281
"Cc1cn([C@@H]2C[C@@H](O)[C@H](CO)O2)c(=O)[nH]c1=O [TBV, Telbivudine]",ALT nomalisatioin,hepatitis B virus [1]; HBeAg(+) patients,77%
same,Anti-Hbe-seroconversion,hepatitis B virus [1]; HBeAg(+) patients,22%
same,HBV DNA <60~80 IU/ml,hepatitis B virus [1]; HBeAg(+) patients,60%
same,HBs Ag loss,hepatitis B virus [1]; HBeAg(+) patients,0.5%
same,ALT nomalisatioin,hepatitis B virus [1]; HBeAg(−) patients,74%
same,HBV DNA <60~80 IU/ml,hepatitis B virus [1]; HBeAg(−) patients,88%
same,HBs Ag loss,hepatitis B virus [1]; HBeAg(−) patients,0%
"CC(C)OC(=O)OCOP(=O)(CO[C@H](C)Cn1cnc2c(N)ncnc21)OCOC(=O)OC(C)C [TDF, Tenofovirdisoproxil fumarate]",ALT nomalisatioin,hepatitis B virus [1]; HBeAg(+) patients,68%
same,Anti-Hbe-seroconversion,hepatitis B virus [1]; HBeAg(+) patients,21%
same,HBV DNA <60~80 IU/ml,hepatitis B virus [1]; HBeAg(+) patients,76%
same,HBs Ag loss,hepatitis B virus [1]; HBeAg(+) patients,3%
same,ALT nomalisatioin,hepatitis B virus [1]; HBeAg(−) patients,76%
same,HBV DNA <60~80 IU/ml,hepatitis B virus [1]; HBeAg(−) patients,93%
same,HBs Ag loss,hepatitis B virus [1]; HBeAg(−) patients,0%
same,HBeAg loss (%),"hepatitis B virus [4]; Total, 1 year (week 48)",(12%)
same,HBeAg loss n/N,"hepatitis B virus [4]; Total, 1 year (week 48)",34/285
same,HBsAg loss (%),"hepatitis B virus [4]; Total, 1 year (week 48)",(<1%)
same,HBsAg loss n/N,"hepatitis B virus [4]; Total, 1 year (week 48)",1 out of 428 and 1/428
same,HBeAg loss (%),"hepatitis B virus [4]; Total, 2 years (week 96)",(18%)
same,HBeAg loss n/N,"hepatitis B virus [4]; Total, 2 years (week 96)",51/285
same,HBsAg loss (%),"hepatitis B virus [4]; Total, 2 years (week 96)",(<1%)
same,HBsAg loss n/N,"hepatitis B virus [4]; Total, 2 years (week 96)",4/428
same,HBeAg seroconversion (%),"hepatitis B virus [4]; baseline HBeAg(+), 1 year",(8%)
same,HBeAg seroconversion n/N,"hepatitis B virus [4]; baseline HBeAg(+), 1 year",23/285
same,HBsAg seroconversion n/N,"hepatitis B virus [4]; baseline HBeAg(+), 1 year",0
same,HBeAg loss n/N,hepatitis B virus [4]; [8],34/285
same,HBsAg loss n/N,hepatitis B virus [4]; [8],1/288
same,HBeAg seroconversion (%),"hepatitis B virus [4]; baseline HBeAg(+), 2 years",(12%)
same,HBeAg seroconversion n/N,"hepatitis B virus [4]; baseline HBeAg(+), 2 years",35/285
same,HBsAg seroconversion n/N,"hepatitis B virus [4]; baseline HBeAg(+), 2 years",0
same,Average reduction of HBsAg,hepatitis B virus [4]; [9],−0.64 log10IU/ml
same,HBeAg loss n/N,hepatitis B virus [4]; [9],51/285
same,HBsAg loss n/N,hepatitis B virus [4]; [9],4/288
same,HBsAg seroconversion n/N,"hepatitis B virus [4]; baseline HBeAg(−), 1 year",0
same,HBsAg loss n/N,hepatitis B virus [4]; [10],0
same,HBsAg seroconversion n/N,"hepatitis B virus [4]; baseline HBeAg(−), 2 years",0
same,Average reduction of HBsAg,hepatitis B virus [4]; [11],−0.10 log10IU/ml
same,HBsAg loss n/N,hepatitis B virus [4]; [11],0
same,HBeAg loss (%),"hepatitis B virus [5]; HBeAg(+), 3-year follow-up",34%
same,HBeAg seroconversion (%),"hepatitis B virus [5]; HBeAg(+), 3-year follow-up",26%
same,HBsAg loss (%) [kaplan-meier],hepatitis B virus [5]; [12],8%
same,HBsAg seroconversion (%) [kaplan-meier],hepatitis B virus [5]; [12],6%
same,"HBsAg seroconversion, n patients",hepatitis B virus [5]; [12],(n = 15)
same,HBeAg loss n/N,"hepatitis B virus [5]; HBeAg(+), 7-year follow-up",84/154
same,HBeAg seroconversion n/N,"hepatitis B virus [5]; HBeAg(+), 7-year follow-up",61/154
same,HBsAg loss (%) [kaplan-meier],"hepatitis B virus [5]; HBeAg(+), 7-year follow-up",11.8%
same,"HBsAg loss, n patients","hepatitis B virus [5]; HBeAg(+), 7-year follow-up",(n = 27)
same,HBsAg seroconversion (%) [kaplan-meier],"hepatitis B virus [5]; HBeAg(+), 7-year follow-up",9.7%
same,"HBsAg seroconversion, n patients","hepatitis B virus [5]; HBeAg(+), 7-year follow-up",(n = 21)
same,HBeAg loss n/N,"hepatitis B virus [5]; HBeAg(+), 10-year follow-up",12/23
same,HBeAg seroconversion n/N,"hepatitis B virus [5]; HBeAg(+), 10-year follow-up",6/22
same,HBsAg loss n/N,"hepatitis B virus [5]; HBeAg(+), 10-year follow-up, (non-Asian)",4/81
same,HBeAg seroconversion n/N,"hepatitis B virus [5]; HBeAg(+), phase 3, 1 year",32/153
same,HBsAg loss n/N,hepatitis B virus [5]; [13],5/158
same,HBsAg seroconversion n/N,hepatitis B virus [5]; [13],2/158
same,HBsAg loss n/N,"hepatitis B virus [5]; HBeAg(−), 3-year follow-up",0
same,HBsAg seroconversion n/N,"hepatitis B virus [5]; HBeAg(−), 3-year follow-up",0
same,HBsAg seroconversion n/N,"hepatitis B virus [5]; HBeAg(−), 7-year follow-up",0
same,HBsAg loss n/N,"hepatitis B virus [5]; HBeAg(−), 10-year follow-up, (non-Asian)",4/117
same,HBsAg loss n/N,"hepatitis B virus [5]; HBeAg(−), phase 3, 1 year",0
same,HBsAg seroconversion n/N,"hepatitis B virus [5]; HBeAg(−), phase 3, 1 year",0
same,HBsAg loss (%),hepatitis B virus [5]; [14],4.0%
same,HBsAg loss n/N,hepatitis B virus [5]; [14],8/198
same,"HBsAg loss, number of patients","hepatitis B virus [5]; all patients, over 7 years",28
same,change of HBsAg levels,"hepatitis B virus [5]; patients first receiving oral antiviral agent, after 2 years (96 weeks), FIG. 1",no significant change
Pam3Cys-Ser-Ser,virus-specific cytotoxic T lymphocytes (CTLs),[6],induced
